Biological target: T1, acetylcholine muscarinic M1 receptor (CHOnfat/hM1 cells) (Homo sapiens, UniProt P11229)
T1 construct: expressed in transfected cells; host or cells: CHOnfat (CHO) cells expressing hM1
T1 sequence (P11229 1-460): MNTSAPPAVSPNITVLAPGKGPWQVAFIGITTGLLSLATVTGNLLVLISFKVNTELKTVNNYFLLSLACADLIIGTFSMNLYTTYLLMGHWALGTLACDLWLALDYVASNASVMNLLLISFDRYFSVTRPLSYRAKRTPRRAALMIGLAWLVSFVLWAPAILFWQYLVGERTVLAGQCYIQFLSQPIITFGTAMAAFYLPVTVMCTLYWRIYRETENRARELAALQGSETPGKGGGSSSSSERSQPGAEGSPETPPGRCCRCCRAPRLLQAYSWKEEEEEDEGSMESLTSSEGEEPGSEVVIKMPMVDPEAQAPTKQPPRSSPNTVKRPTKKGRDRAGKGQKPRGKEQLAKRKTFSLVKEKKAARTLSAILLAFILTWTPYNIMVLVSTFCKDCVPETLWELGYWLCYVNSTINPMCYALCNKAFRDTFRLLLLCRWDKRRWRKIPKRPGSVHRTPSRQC
Experiment: muscarinic M1 FLIPR calcium assay for positive allosteric modulator activity (acetylcholine EC20)
Assay type: cell-based
Details: FLIPR intracellular Ca2+, 4 min preincubation, then EC20 acetylcholine (3 nM final), read-out: IP Value (inflection point)
Experimental: The assay studies the effect of one or several concentrations of test compounds on basal or acetylcholine-stimulated Ca^2+ levels using FLIPR.
Compounds are prepared and subjected to a preincubation period of 4 min. Thereafter, a single EC20 concentration of acetylcholine is added to each well (3 nM final). The intracellular Ca^2+ level of each sample is measured and compared to an acetylcholine control to determine any modulatory activity.
Cells: CHOnfat/hM1, hM2, hM3 or hM4 cells are plated 24 hr before the assay at a density of 18,000 cells/well (100 μL) in a 384 well plate. CHOnfat/hM1 and CHOnfat/hM3 Growth Medium: 90% DMEM (Hi Glucose); 10% HI FBS; 2 mM L-glutamine; 0.1 mM NEAA; Pen-Strep; and 1 mg/ml Geneticin, are added. For M2Gqi5CHOnfat and M4Gqi5CHOnfat cells, an additional 600 μg/ml hygromycin is added.
Buffers. […] Dye Loading Buffer: Assay Buffer plus 1% Fetal Bovine Serum and Fluo-4AM/Pluronic Acid Mixture. […] 20% Pluronic Acid Solution stock, with a concentration of 0.04% in Buffer, 0.02% in Assay.
65 μL of 2 mM Fluo-4AM are mixed with 130 μL of 20% Pluronic Acid. The resulting solution and 650 μL FBS is added to the assay buffer for a total volume of 65 mL. Positive Controls: 4-Br-A23187: 10 mM in DMSO; final concentration 10 μM. Acetylcholine: 10 mM in water, working stock at both 20 μM and 30 μM in assay buffer, final concentration of 10 μM. This is used to check the maximum stimulation of the CHOK1/hM1 cells. 20 μM (2×) acetylcholine is added in the preincubation part of the assay, and the 30 μM (3×) stock is added in the second part. (EC20)Acetylcholine: 10 mM in water, working stock of 9 nM (3×), and final concentration in assay is 3 nM. This is used after the preincubation with test compounds. Addition of the EC20 Acetylcholine to each well with a test compound will ascertain any modulator activity. 24 wells contain 3 nM Acetylcholine alone as a control.
Four 96-well plates are combined into a 384-well plate using Mosquito Nanolitre Pipetting System by transferring 1 μl of serial diluted compounds to each well, and 1 mM acetylcholine (100× stock concentration) were added as a control. Using Temo, 49 μl assay buffer is added to each well of the 384-well plate right before assay.
In a 96-well Whatman 2 ml Uniplate, 9 nM Acetylcholine (3×) is pipetted into wells corresponding to the screening compounds, and into control wells. The 30 μM acetylcholine control (3×) is added into control wells, and the 3× agonist plate is transferred into a 384-well plate.
Cells are washed three times with 100 μL, of buffer, leaving 30 μL of buffer in each well. Using Multimek, 30 μL of Dye Loading Buffer is added into each well and incubated at 37° C., 5% CO2 for up to one hr.
After 60 min, the cells are washed three times with 100 μL of buffer, leaving 30 μL of buffer in each well. The cell plate, screening plate, and agonist addition plates are placed on the platform in the FLIPR and the door is closed. A signal test to check background fluorescence and basal fluorescence signal is performed. Laser intensity is adjusted if necessary.
4 min of preincubation with the test compounds is provided to determine any agonist activity on the M1 receptor by comparison to the 1 mM acetylcholine control. After preincubation, the EC20 value of acetylcholine (3 nM final) is added to determine any modulator activity.
The inflection point is calculated from the FLIPR values, and is a measure of activity.

| EC50 | SMILES |
| --- | --- |
| 202 nM | O=C(O)c1cn(Cc2ccc(-c3ccc(F)nc3)cn2)c2c(F)cccc2c1=O [Example 1, 5-{6-[(3-Carboxy-8-fluoro-4-oxoquinolin-1(4H)-yl)methyl]pyridine-3-yl}-2-fluoropyridinium] |
| 65 nM | CCn1cc(-c2ccc(Cn3cc(C(=O)O)c(=O)c4c(F)ccc(F)c43)nc2)cn1 [Example 2] |
| 495 nM | O=C(O)c1cn(Cc2ccc(-c3ccc(F)nc3)cn2)c2cccc(F)c2c1=O [Example 7] |
| 103 nM | Nc1ccc(-c2ccc(Cn3cc(C(=O)O)c(=O)c4c(F)cccc43)nc2)cn1 [Example 10] |
| 100 nM | O=C(O)c1cn(Cc2ccc(-c3ccc(N4CCOCC4)nc3)cn2)c2cccc(F)c2c1=O [Example 27] |
| 24 nM | Nc1cccc(-c2ccc(Cn3cc(C(=O)O)c(=O)c4cccc(F)c43)nc2)c1 [Example 55] |
| 1900 nM | O=C(O)c1cn(Cc2ccc(-n3cccn3)cn2)c2c(F)cccc2c1=O [Example 68] |
| 99 nM | CS(=O)(=O)Nc1cccc(-c2ccc(Cn3cc(C(=O)O)c(=O)c4cccc(F)c43)nc2)c1 [Example 101] |
| 745 nM | O=C(O)c1cn(Cc2ccc(-c3ccc(F)cc3F)cn2)c2c(F)cccc2c1=O [Example 108] |
| 302 nM | COc1ccc(-c2ccc(Cn3cc(C(=O)O)c(=O)c4c(F)ccc(F)c43)nc2)cn1 [Example 134] |
| 114 nM | O=C(O)c1cn(Cc2ccc(-c3cnn(CC(F)(F)F)c3)cn2)c2c(F)ccc(F)c2c1=O [Example 156] |
| 2240 nM | O=C(O)c1cn(Cc2cccc(-n3cccn3)n2)c2c(F)ccc(F)c2c1=O [Example 160] |
| 37 nM | Cn1ccc2cc(-c3ccc(Cn4cc(C(=O)O)c(=O)c5cccc(F)c54)cn3)ccc21 [Example 234] |
| 2890 nM | O=C(O)c1cn(Cc2c(F)cncc2F)c2c(F)cccc2c1=O [Example 283] |
| 2320 nM | O=C(O)c1cn(Cc2ncc(-c3ccccc3O)cn2)c2c(F)cccc2c1=O [Example 293] |
| 7190 nM | O=C(O)c1cn(Cc2cnc(-c3ccncc3)cn2)c2c(F)cccc2c1=O [Example 315] |
| 382 nM | O=C(O)c1cn(Cc2ccc(-c3cccc(O)c3)nn2)c2c(F)cccc2c1=O [Example 319] |
| 8660 nM | O=C(O)c1cn(Cc2ccc(-c3ccccc3F)nn2)c2c(F)cccc2c1=O [Example 329] |
| 5250 nM | O=C(O)c1cn(Cc2ccc(N3CCC3)nn2)c2c(F)cccc2c1=O [Example 334] |
| 24800 nM | C[S+]([O-])c1ccc(Cn2cc(C(=O)O)c(=O)c3cccc(F)c32)nn1 (stereo not shown) [Example 352] |
| 14300 nM | O=C(O)c1cn(Cc2ccc(N3CCCCC3)nn2)c2c(F)cccc2c1=O [Example 372, 8-Fluoro-4-oxo-1-[(6-piperidin-1-ylpyridazin-3-yl)methyl]-1,4-dihydroquinoline-3-carboxylic acid] |
| ~80000 nM | CS(=O)(=O)c1ccc(Cn2cc(C(=O)O)c(=O)c3cccc(F)c32)nn1 [Example 373, 8-Fluoro-1-{[6-(methylsulfonyl)pyridazin-3-yl]methyl}-4-oxo-1,4-dihydroquinoline-3-carboxylic acid] |

From patent US8293914B2, “4-OXO,1-4-dihydroquinoline M1 receptor positive allosteric modulators” (Merck Sharp & Dohme Corp., priority 2008, dated 2012)
